This assay concerns the target T1, hGIP-R (Homo sapiens, UniProt P48546).
T1 construct: expressed in transfected cells; host or cells: HEK-293 clonal cell lines
T1 sequence (P48546 22-466): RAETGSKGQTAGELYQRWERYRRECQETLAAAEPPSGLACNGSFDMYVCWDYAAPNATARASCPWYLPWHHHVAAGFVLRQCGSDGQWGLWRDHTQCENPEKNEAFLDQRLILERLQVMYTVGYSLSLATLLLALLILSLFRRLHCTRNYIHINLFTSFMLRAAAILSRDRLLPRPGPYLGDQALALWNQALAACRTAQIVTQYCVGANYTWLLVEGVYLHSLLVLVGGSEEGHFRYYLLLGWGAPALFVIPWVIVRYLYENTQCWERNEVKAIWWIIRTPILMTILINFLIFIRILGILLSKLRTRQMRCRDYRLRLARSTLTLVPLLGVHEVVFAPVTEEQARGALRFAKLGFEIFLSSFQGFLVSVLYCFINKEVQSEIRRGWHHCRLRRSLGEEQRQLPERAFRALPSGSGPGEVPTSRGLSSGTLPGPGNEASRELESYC
Nature of the assay: Functional hGIP-R Assay (cAMP formation, HTRF). The note with it: for Emax: cAMP efficacy, percent of maximal response to GIP(1-42)OH, 37° C., 0.1% bovine casein, arithmetic mean ± SEM; for EC50: cAMP potency, HEK-293 cells expressing hGIP-R, incubated at 37° C. in the presence of 0.1% bovine casein, geometric mean, read-out: Human GIP-R EC50, nM (SEM, n). It is filed as cell-based. The method, then:
Functional activity was determined using CAMP formation in HEK-293 clonal cell lines expressing hGIP-R. hGIP-R receptor expressing cells were treated with compound (20 point concentration-response curve in DMSO, 2-fold Labcyte Echo direct dilution, 384 well plate Corning Cat #3570) in DMEM (Gibco Cat #31053) supplemented with 1× GlutaMAX™ (Gibco Cat #35050), 0.1% bovine casein (Sigma C4765-10ML), 250 μM IBMX (3-Isobutyl-1-methylxanthine, Acros Cat #228420010) and 20 mM HEPES (Gibco Cat #15630) in a 20 μL assay volume (final DMSO concentration was 1%). After a 30 min incubation at 37° C., the resulting increase in intracellular cAMP was quantitatively determined using the Revvity CAMP Dynamic 2 HTRF Assay Kit (62AM4PEJ). Briefly, cAMP levels within the cell were detected by adding the cAMP-d2 conjugate in cell lysis buffer (10 μL) followed by the antibody anti-cAMP-Eu^3+-Cryptate, also in cell lysis buffer (10 μL). The resulting competitive assay was incubated for at least 60 min at RT, then detected using a BMG Labtech PHERAstar FSX instrument with excitation at 320 nm and emission at 665 nm and 620 nm. PHERAstar units (emission at 665 nm/620 nm*10,000) are inversely proportional to the amount of cAMP present and were converted to nM cAMP per well using a CAMP standard curve. The amount of cAMP generated (nM) in each well was converted to a percent of the maximal response observed with human GIP (1-42) OH. A relative EC50 value and percent top (Emax) were derived by non-linear regression analysis using the percent maximal response vs. the concentration of compound added, fitted to a four-parameter logistic equation.
Background: cAMP levels reflect the balance of adenylyl cyclase and phosphodiesterase activity.

What is called Emax is the size of the effect at its maximum, as opposed to the concentration needed. The EC50 is the concentration needed to bring the measured effect to its halfway point.

Consider `Cn1cc(C[C@@H](NC(=O)[C@H]2C[C@@H]2c2ccc(-c3cnc4nn(C)cc4c3)cc2)C(=O)NC(C)(C)Cn2nc(C(F)(F)F)cc2-c2ccn(C3CCOC3)n2)cn1` (mixture of isomers) [Example 53, (1S,2S)-N-((R)-1-((2-Methyl-1-(1-((RS)-tetrahydrofuran-3-yl)-5′-(trifluoromethyl)-1H,2′H-[3,3′-bipyrazol]-2′-yl)propan-2-yl)amino)-3-(1-methyl-1H-pyrazol-4-yl)-1-oxopropan-2-yl)-2-(4-(2-methyl-2H-pyrazolo[3,4-b]pyridin-5-yl)phenyl) cyclopropane-1-carboxamide, mixture of 2 diastereomers], for which the Emax came to 123 ± 4.24% and the concentration giving a half-maximal response (EC50) worked out at 22.6 nM.
As to `Cn1cc(C[C@@H](NC(=O)[C@H]2C[C@@H]2c2ccc(-c3cnc4nn(C)cc4c3)cc2)C(=O)NC(C)(C)Cn2nc(C(F)(F)F)cc2-n2nccn2)cn1` (single isomer, unassigned) [Example 13], the maximal response (Emax) turned out to be 112 ± 0.275% and the concentration giving a half-maximal response (EC50) was found to be 49.7 nM.
On to `CN1CCC(n2cc(C(F)(F)F)nc2CC(C)(C)NC(=O)[C@@H](Cc2cnn(C(F)F)c2)N2CC[C@@]3(C[C@@H]3c3ccc(-c4cnc5nc(C6CC6)cn5c4)cc3Cl)C2=O)C1=O` (single isomer, unassigned) [Example 146], for which the Emax was determined as 120 ± 5.11% and the half-maximal effective concentration (EC50) turned out to be 0.234 nM.
`CC(C)(Cn1nc(C(F)(F)F)cc1-c1ccn(C2CC2)c(=O)c1)NC(=O)[C@@H](Cc1cnn(C(F)F)c1)N1CCC2(CC2c2ccc(-c3cnc4nc(C5CC5)cn4c3)nc2C2CC2)C1=O` (single isomer, unassigned) [Example 166]: the Emax was 116 ± 2.13% and the EC50 amounted to 0.359 nM.
Consider `Cc1cn2cc(-c3ccc(C4CC45CCN([C@H](Cc4cnn(C(F)F)c4)C(=O)NC(C)(C)Cn4nc(C(F)(F)F)cc4-c4ccn(C6CC6)c(=O)c4)C5=O)c(C4CC4)n3)cnc2n1` (single isomer, unassigned) [Example 167], for which the maximal response (Emax) turned out to be 92.1 ± 0.883% and the concentration giving a half-maximal response (EC50) was 0.753 nM.
On to `Cn1cc(-c2cc(C(F)(F)F)nn2CC(C)(C)NC(=O)[C@@H](Cc2cnn(C(F)F)c2)N2CCC3(CC3c3ccc4cnn(C)c4c3)C2=O)cc(F)c1=O` (single isomer, unassigned) [Example 184], for which the maximal response (Emax) came out at 15.2 ± 1.27% and the EC50 was determined as 15.2 nM.
For `Cn1cc2cc(-c3ccc([C@H]4C[C@@]45CCN([C@H](Cc4cnn(C(F)F)c4)C(=O)NC(C)(C)Cn4nc(C(F)(F)F)cc4-c4cc(F)c(=O)n(C)c4)C5=O)c(F)c3)cnc2n1` (single isomer, unassigned; isomer 1) [Example 99], in that order: 69.2 ± 0.431% and 6.84 nM.
Taken in the same sequence, the figures for `Cc1cn2cc(-c3ccc([C@H]4C[C@@]45CCN([C@H](Cc4cnn(C(F)F)c4)C(=O)NC(C)(C)Cn4nc(C(F)(F)F)cc4-c4cnc(C6CC6)nc4)C5=O)cc3)cnc2n1` (single isomer, unassigned; isomer 1) [Example 101] were 59.6 ± 0.0693% and 58.5 nM.
For `Cc1cn2cc(-c3ccc([C@H]4C[C@@]45CCN([C@H](Cc4cnn(C(F)F)c4)C(=O)NC(C)(C)Cn4nc(C(F)(F)F)cc4-c4cnc(C(F)(F)F)nc4)C5=O)cc3)cnc2n1` (single isomer, unassigned; isomer 1) [Example 102], in that order: 69.4 ± 0.0734% and 50.9 nM.
As for `CN1CC2C=C(c3ccc([C@H]4C[C@@]45CCN([C@H](Cc4cnn(C(F)F)c4)C(=O)NC(C)(C)Cn4nc(C(F)(F)F)cc4-c4cnc(C(F)(F)F)nc4)C5=O)cc3)C=NC2C1=O` (single isomer, unassigned; isomer 1) [Example 103], the maximum response (Emax) turned out to be 73.3 ± 6.2% and the EC50 is 99.6 nM.
For `Cn1cc(-c2cc(C(F)(F)F)nn2CC(C)(C)NC(=O)[C@@H](Cc2cnn(C(F)F)c2)N2CC[C@@]3(C[C@@H]3c3ccc(-c4cnc5nc(C(C)(C)O)ccc5c4)cc3)C2=O)ccc1=O` (single isomer, unassigned; isomer 1) [Example 104], in that order: 89 ± 1.12% and 54.6 nM.
